Earlier results on two molecules are cited in patent US20250255843A1, “COMPOSITIONS COMPRISING CYSTEINE PRODRUGS AND METHODS USING THEREOF” (Nature's Fusions, LLC, priority 2022, published 2025).

For data set [1] the following is noted: more stable than cysteine.
The conditions of data set [2]: in vivo.
For data set [3] the following is noted: cell membrane.
For data set [4] the following is noted: oral; metabolized in liver and kidney.
The subject of another data set is oxidative damage. The settings on record: relative to NAC.

For `CC(=O)N[C@@H](CS)C(=O)O` [NAC, N-acetyl L-cysteine], in data set [1], the “stability relative to cysteine” value is given as “about 10 times”. The increase of plasma with plasma GSH (medium to high doses (up to 8 g/day)) is 5-20%. The bioavailability in data set [2] is recorded as 4-6%. Moreover, the membrane penetration result in data set [3] is “poorly membrane penetrable”. Further, the detectability in plasma entry in data set [4] is recorded as “almost undetectable in plasma”.
As for `CCOC(=O)[C@H](CS)NC(C)=O` [NACET, N-acetyl L-cysteine ethyl ester], in the data set with plasma GSH (lower than 8 g/day doses), the “increase of plasma GSH” value is recorded as 250%. The “protective agent against oxidative damage, concentration lower than that of NAC” value in the data set on oxidative damage is listed as 5-10 times. Moreover, the bioavailability in data set [2] is reported as 60-80%. For the same molecule, the membrane penetration entry in data set [3] is “cell-permeable”.
